From PMC4413193, “3-[4-(1H-Indol-3-yl)-1,3-thiazol-2-yl]-1H-pyrrolo[2,3-b]pyridines, Nortopsentin Analogues with Antiproliferative Activity” (Marine Drugs, 2015)

Experiment: Solubility noted during NMR characterisation
Format: physicochemical
Conditions: NMR solvents (DMSO-d6 or CDCl3)
Procedure: All melting points were taken on a Büchi-Tottoly capillary apparatus. IR spectra were determined in bromoform with a Shimadzu FT/IR 8400S spectrophotometer. ^1H and ^13C NMR spectra were measured at 200 and 50.0 MHz, respectively, in dimethylsulfoxide (DMSO)-d6 or CDCl3 solution, using a Bruker Avance II series 200 MHz spectrometer. […] Column chromatography was performed with Merk silica gel 230–400 mesh ASTM or with Büchi Sepacor chromatography module (prepacked cartridge system). Elemental analyses (C, H, N) were within ±0.4% of theoretical values and were performed with a VARIO EL III elemental analyzer. Purity of all the tested compounds was greater than 98%, determined by HPLC as described below.

| Compound | solubility |
| --- | --- |
| Cn1cc(-c2csc(-c3cn(C)c4ncccc34)n2)c2cc(F)ccc21 [Compound 3b, 3-[4-(5-Fluoro-1-methyl-1H-indol-3-yl)-1,3-thiazol-2-yl]-1-methyl-1H-pyrrolo[2,3-b]pyridine] | poor solubility |
| Cn1cc(-c2csc(-c3c[nH]c4ncccc34)n2)c2cc(F)ccc21 [Compound 3a, 3-[4-(5-Fluoro-1-methyl-1H-indol-3-yl)-1,3-thiazol-2-yl]-1H-pyrrolo[2,3-b]pyridine] | poor solubility |
